# Test results taken from PubChem BioAssay (NCI).
#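 In this assay, cells in 96-well plates receive the compound at five concentrations for 48 hours. Endpoints are linearly interpolated between the surrounding concentrations. GI50 is the concentration that inhibits growth by half. TGI: total growth inhibition.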
# Experiments:
# Experiment in all cases: NCI anticancer screen, dose series, 48 h
# 786-0 renal = tested on: 786-0 renal
# A498 renal = tested on: A498 renal
# A549 NSCLC = tested on: A549 NSCLC
# ACHN renal = tested on: ACHN renal
# BT-549 breast = tested on: BT-549 breast
# CAKI-1 renal = tested on: CAKI-1 renal
# CCRF-CEM leukemia = tested on: CCRF-CEM leukemia
# COLO 205 colon = tested on: COLO 205 colon
# DU-145 prostate = tested on: DU-145 prostate
# EKVX NSCLC = tested on: EKVX NSCLC
# HCC-2998 colon = tested on: HCC-2998 colon
# HCT-116 colon = tested on: HCT-116 colon
# HCT-15 colon = tested on: HCT-15 colon
# HL-60(TB) leukemia = tested on: HL-60(TB) leukemia
# HOP-62 NSCLC = tested on: HOP-62 NSCLC
# HOP-92 NSCLC = tested on: HOP-92 NSCLC
# HS 578T breast = tested on: HS 578T breast
# HT29 colon = tested on: HT29 colon
# IGROV1 ovarian = tested on: IGROV1 ovarian
# K-562 leukemia = tested on: K-562 leukemia
# KM12 colon = tested on: KM12 colon
# LOX IMVI melanoma = tested on: LOX IMVI melanoma
# M14 melanoma = tested on: M14 melanoma
# MALME-3M melanoma = tested on: MALME-3M melanoma
# MCF7 breast = tested on: MCF7 breast
# MDA-MB-231 breast = tested on: MDA-MB-231 breast
# MDA-MB-435 = tested on: MDA-MB-435
# MDA-MB-468 breast = tested on: MDA-MB-468 breast
# MOLT-4 leukemia = tested on: MOLT-4 leukemia
# NCI-H226 lung = tested on: NCI-H226 lung
# NCI-H23 lung = tested on: NCI-H23 lung
# NCI-H460 lung = tested on: NCI-H460 lung
# NCI-H522 lung = tested on: NCI-H522 lung
# NCI/ADR-RES ovarian = tested on: NCI/ADR-RES ovarian
# OVCAR-3 ovarian = tested on: OVCAR-3 ovarian
# OVCAR-4 ovarian = tested on: OVCAR-4 ovarian
# OVCAR-5 ovarian = tested on: OVCAR-5 ovarian
# OVCAR-8 ovarian = tested on: OVCAR-8 ovarian
# PC-3 prostate = tested on: PC-3 prostate
# RPMI-8226 leukemia = tested on: RPMI-8226 leukemia
# RXF 393 renal = tested on: RXF 393 renal
# SF-268 CNS = tested on: SF-268 CNS
# SF-295 CNS = tested on: SF-295 CNS
# SF-539 CNS = tested on: SF-539 CNS
# SK-MEL-2 melanoma = tested on: SK-MEL-2 melanoma
# SK-MEL-28 melanoma = tested on: SK-MEL-28 melanoma
# SK-MEL-5 melanoma = tested on: SK-MEL-5 melanoma
# SK-OV-3 ovarian = tested on: SK-OV-3 ovarian
# SN12C renal = tested on: SN12C renal
# SNB-19 CNS = tested on: SNB-19 CNS
# SNB-75 CNS = tested on: SNB-75 CNS
# SR leukemia = tested on: SR leukemia
# SW-620 colon = tested on: SW-620 colon
# T-47D breast = tested on: T-47D breast
# TK-10 renal = tested on: TK-10 renal
# U251 CNS = tested on: U251 CNS
# UACC-257 melanoma = tested on: UACC-257 melanoma
# UACC-62 melanoma = tested on: UACC-62 melanoma
# UO-31 renal = tested on: UO-31 renal
compound,measurement,setting,value
COc1cnc2c(c1)C(=O)c1c-2n(CCCNCCO)c(=O)c2cc(F)ccc12,GI50,786-0 renal,0.277 µM
same,TGI,786-0 renal,0.962 µM
same,GI50,A498 renal,1.44 µM
same,TGI,A498 renal,7.88 µM
same,GI50,A549 NSCLC,0.198 µM
same,TGI,A549 NSCLC,1.1 µM
same,GI50,ACHN renal,0.175 µM
same,TGI,ACHN renal,0.465 µM
same,GI50,BT-549 breast,0.969 µM
same,TGI,BT-549 breast,4.04 µM
same,GI50,CAKI-1 renal,0.22 µM
same,TGI,CAKI-1 renal,1.68 µM
same,GI50,CCRF-CEM leukemia,0.206 µM
same,TGI,CCRF-CEM leukemia,0.966 µM
same,GI50,COLO 205 colon,0.838 µM
same,TGI,COLO 205 colon,2.77 µM
same,GI50,DU-145 prostate,0.287 µM
same,TGI,DU-145 prostate,3.59 µM
same,GI50,EKVX NSCLC,1.21 µM
same,TGI,EKVX NSCLC,5.14 µM
same,GI50,HCC-2998 colon,0.549 µM
same,TGI,HCC-2998 colon,1.7 µM
same,GI50,HCT-116 colon,0.183 µM
same,TGI,HCT-116 colon,0.657 µM
same,GI50,HCT-15 colon,0.328 µM
same,TGI,HCT-15 colon,1.56 µM
same,GI50,HL-60(TB) leukemia,0.19 µM
same,TGI,HL-60(TB) leukemia,1.37 µM
same,GI50,HOP-62 NSCLC,0.207 µM
same,TGI,HOP-62 NSCLC,0.605 µM
same,GI50,HOP-92 NSCLC,1.66 µM
same,TGI,HOP-92 NSCLC,7.26 µM
same,GI50,HS 578T breast,2.02 µM
same,TGI,HS 578T breast,12.4 µM
same,GI50,HT29 colon,0.3 µM
same,TGI,HT29 colon,1.38 µM
same,GI50,IGROV1 ovarian,0.51 µM
same,TGI,IGROV1 ovarian,2.68 µM
same,GI50,K-562 leukemia,0.28 µM
same,TGI,K-562 leukemia,6.05 µM
same,GI50,KM12 colon,0.872 µM
same,TGI,KM12 colon,10.5 µM
same,GI50,LOX IMVI melanoma,0.167 µM
same,TGI,LOX IMVI melanoma,0.502 µM
same,GI50,M14 melanoma,0.589 µM
same,TGI,M14 melanoma,2.41 µM
same,GI50,MALME-3M melanoma,0.851 µM
same,TGI,MALME-3M melanoma,2.56 µM
same,GI50,MCF7 breast,0.101 µM
same,TGI,MCF7 breast,1.7 µM
same,GI50,MDA-MB-231 breast,1.64 µM
same,TGI,MDA-MB-231 breast,4.1 µM
same,GI50,MDA-MB-435,1.27 µM
same,TGI,MDA-MB-435,4.52 µM
same,GI50,MDA-MB-468 breast,0.16 µM
same,TGI,MDA-MB-468 breast,0.351 µM
same,GI50,MOLT-4 leukemia,0.174 µM
same,TGI,MOLT-4 leukemia,0.757 µM
same,GI50,NCI-H226 lung,0.452 µM
same,TGI,NCI-H226 lung,1.32 µM
same,GI50,NCI-H23 lung,0.259 µM
same,TGI,NCI-H23 lung,0.785 µM
same,GI50,NCI-H460 lung,0.198 µM
same,TGI,NCI-H460 lung,0.908 µM
same,GI50,NCI-H522 lung,0.42 µM
same,TGI,NCI-H522 lung,1.83 µM
same,GI50,NCI/ADR-RES ovarian,0.678 µM
same,TGI,NCI/ADR-RES ovarian,2.58 µM
same,GI50,OVCAR-3 ovarian,0.819 µM
same,TGI,OVCAR-3 ovarian,6.51 µM
same,GI50,OVCAR-4 ovarian,1.71 µM
same,TGI,OVCAR-4 ovarian,8.65 µM
same,GI50,OVCAR-5 ovarian,0.661 µM
same,TGI,OVCAR-5 ovarian,2.42 µM
same,GI50,OVCAR-8 ovarian,0.555 µM
same,TGI,OVCAR-8 ovarian,2.79 µM
same,GI50,PC-3 prostate,0.667 µM
same,TGI,PC-3 prostate,10.5 µM
same,GI50,RPMI-8226 leukemia,0.25 µM
same,TGI,RPMI-8226 leukemia,1.88 µM
same,GI50,RXF 393 renal,0.885 µM
same,TGI,RXF 393 renal,2.54 µM
same,GI50,SF-268 CNS,1.2 µM
same,TGI,SF-268 CNS,11 µM
same,GI50,SF-295 CNS,0.306 µM
same,TGI,SF-295 CNS,1.23 µM
same,GI50,SF-539 CNS,0.326 µM
same,TGI,SF-539 CNS,1.22 µM
same,GI50,SK-MEL-2 melanoma,2.36 µM
same,TGI,SK-MEL-2 melanoma,4.36 µM
same,GI50,SK-MEL-28 melanoma,1.92 µM
same,TGI,SK-MEL-28 melanoma,5.69 µM
same,GI50,SK-MEL-5 melanoma,0.477 µM
same,TGI,SK-MEL-5 melanoma,1.64 µM
same,GI50,SK-OV-3 ovarian,0.668 µM
same,TGI,SK-OV-3 ovarian,2.45 µM
same,GI50,SN12C renal,0.287 µM
same,TGI,SN12C renal,1.56 µM
same,GI50,SNB-19 CNS,0.666 µM
same,TGI,SNB-19 CNS,8.06 µM
same,GI50,SNB-75 CNS,0.778 µM
same,TGI,SNB-75 CNS,5.31 µM
same,GI50,SR leukemia,0.0971 µM
same,GI50,SW-620 colon,0.367 µM
same,TGI,SW-620 colon,2.61 µM
same,GI50,T-47D breast,0.269 µM
same,TGI,T-47D breast,1.55 µM
same,GI50,TK-10 renal,1.47 µM
same,TGI,TK-10 renal,4.18 µM
same,GI50,U251 CNS,0.268 µM
same,TGI,U251 CNS,3.24 µM
same,GI50,UACC-257 melanoma,2.13 µM
same,TGI,UACC-257 melanoma,7.97 µM
same,GI50,UACC-62 melanoma,0.496 µM
same,TGI,UACC-62 melanoma,1.83 µM
same,GI50,UO-31 renal,0.195 µM
same,TGI,UO-31 renal,1.17 µM
